Reference: EP0434173A2, “Use of NMDA receptor antagonists for treatment of chronic neurodegenerative diseases” (SCHERING AKTIENGESELLSCHAFT, priority 1989, dated 1991)

System: Dopaminneurone der SNC
Assay: Prevention of MPP^+-induced degeneration of dopamine neurons after local co-injection into the substantia nigra pars compacta; count of intact neurons in cresyl violet stained brain sections
Type: in vivo, Ratten
Conditions: for Anzahl intakter Neurone (Mittelwert ± S.E.M.): right SNC
Excerpt: Zum Nachweis der protectiven Wirkung der erfindungsgemäßen Verbindungen wurde der toxische Metabolit MPP^+ lokal in die Substantia nigra von Ratten injiziert und somit eine rasch fortschreitende Degeneration der Dopaminneuronen bewirkt.

## NC(CCCCCP(=O)(O)O)C(=O)O (stereo not drawn) [AP-7, 2-Amino-7-phosphonoheptansäure]
AP-7 0.025 µmol co-injected with MPP^+ (0.025 µmol pro Seite), 4 h after injection, n=3
  Anzahl intakter Neurone (Mittelwert ± S.E.M.): 26 ± 2
AP-7 0.1 µmol co-injected with MPP^+ (0.025 µmol pro Seite), 4 h after injection, n=4
  Anzahl intakter Neurone (Mittelwert ± S.E.M.): 91 ± 24 x
AP-7 0.25 µmol co-injected with MPP^+ (0.025 µmol pro Seite), 4 h after injection, n=9
  Anzahl intakter Neurone (Mittelwert ± S.E.M.): 128 ± 10 xxx
AP-7 0.25 µmol co-injected with MPP^+ (0.025 µmol pro Seite), 8 h after injection, n=4
  Anzahl intakter Neurone (Mittelwert ± S.E.M.): 79 ± 9 xx
AP-7 0.25 µmol co-injected with MPP^+ (0.025 µmol pro Seite), 24 h after injection, n=4
  Anzahl intakter Neurone (Mittelwert ± S.E.M.): 66 ± 16 x
Simultaneous local administration with MPP^+ into the substantia nigra of rats, result in words
  neurodegenerativer Effekt von MPP^+ auf die Dopaminneuronen: nahezu vollständig auf
